Laboratory results as given in PubChem BioAssay AID256 (DTP/NCI, 2004).
Several values for one entry are separate records, joined by “and”; a condition that tells them apart may be missing. Equal entries are not always repeated. Inconclusive results and toxic doses are left out. Rule for the calls: active = survival T/C of 150% or more; inactive = T/C below 125% in these data.

Tested on: CD2F1 mice, L1210 leukemia ip, survival T/C
Assay: NCI In Vivo Anticancer Drug Screen. Data for tumor model L1210 Leukemia (intraperitoneal) in CD2F1 (CDF1) mice
Settings: endpoint: mean survival time, higher = longer survival
Summary of the method: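 Read-out first: treated-group measurement over vehicle-control measurement, expressed as a ratio. Animals bore a transplanted tumor line and were dosed with compound or vehicle.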

[1] = dose: 25.0 mg/kg/injection, schedule: Q04DX003 (ip), vehicle: saline with Tween-80
[2] = dose: 50.0 mg/kg/injection, schedule: Q04DX003 (ip), vehicle: saline with Tween-80
[3] = dose: 100.0 mg/kg/injection, schedule: Q04DX003 (ip), vehicle: saline with Tween-80
[4] = dose: 200.0 mg/kg/injection, schedule: Q04DX003 (ip), vehicle: saline with Tween-80
[5] = dose: 400.0 mg/kg/injection, schedule: Q04DX003 (ip), vehicle: saline with Tween-80
[6] = dose: 100.0 mg/kg/injection, schedule: Q01DX009 (ip), vehicle: saline with Tween-80
[7] = dose: 200.0 mg/kg/injection, schedule: Q01DX009 (ip), vehicle: saline with Tween-80
[8] = dose: 400.0 mg/kg/injection, schedule: Q01DX009 (ip), vehicle: saline with Tween-80
[9] = dose: 50.0 mg/kg/injection, schedule: Q01DX009 (ip), vehicle: saline with Tween-80
[10] = dose: 100.0 mg/kg/injection, schedule: Q01DX001 (ip), vehicle: saline with Tween-80
[11] = dose: 200.0 mg/kg/injection, schedule: Q01DX001 (ip), vehicle: saline with Tween-80
[12] = dose: 400.0 mg/kg/injection, schedule: Q01DX001 (ip), vehicle: saline with Tween-80

Measured: T/C

OC(c1ccccc1)(c1ccc(-c2ccccc2)cc1)C(O)(c1ccccc1)c1ccc(-c2ccccc2)cc1 (stereo unspecified)
inactive: [1] 96 % of control | [2] 90 % of control | [3] 90 % of control and 100 % of control | [4] 92 % of control | [5] 92 % of control

CCC1(C)C(=O)CCC2C1CCC1(C)C(C(C)CCCC(C)C)CCC21 (stereo unspecified)
inactive: dose: 100.0 mg/kg/injection, schedule: Q01DX001 (sc), vehicle: steriod suspending solution 101 % of control | dose: 200.0 mg/kg/injection, schedule: Q01DX001 (sc), vehicle: steriod suspending solution 98 % of control | dose: 400.0 mg/kg/injection, schedule: Q01DX001 (sc), vehicle: steriod suspending solution 118 % of control

CCOC(=O)C(C)(C(=O)OCC)c1cc2ccccc2c2ccccc12
inactive: dose: 100.0 mg/kg/injection, schedule: Q01DX001 (ip), vehicle: Klucel (hydroxypropylcellulose) (HPC) 104 % of control | dose: 200.0 mg/kg/injection, schedule: Q01DX001 (ip), vehicle: Klucel (hydroxypropylcellulose) (HPC) 104 % of control | dose: 400.0 mg/kg/injection, schedule: Q01DX001 (ip), vehicle: Klucel (hydroxypropylcellulose) (HPC) 104 % of control

COC(=O)c1ccc(C)c(O)c1[N+](=O)[O-]
inactive: [6] 100 % of control | [7] 96 % of control | [8] 101 % of control

Nc1nc(N)c2c(n1)NCN(CCc1c(Cl)cccc1Cl)C2
inactive: dose: 0.75 mg/kg/injection, schedule: Q01DX009 (ip), vehicle: distilled water + Tween-80 98 % of control | dose: 1.5 mg/kg/injection, schedule: Q01DX009 (ip), vehicle: distilled water + Tween-80 102 % of control | dose: 3.0 mg/kg/injection, schedule: Q01DX009 (ip), vehicle: distilled water + Tween-80 98 % of control | dose: 6.0 mg/kg/injection, schedule: Q01DX009 (ip), vehicle: distilled water + Tween-80 98 % of control | dose: 12.0 mg/kg/injection, schedule: Q01DX009 (ip), vehicle: distilled water + Tween-80 104 % of control | dose: 24.0 mg/kg/injection, schedule: Q01DX009 (ip), vehicle: distilled water + Tween-80 98 % of control | dose: 37.5 mg/kg/injection, schedule: Q01DX009 (ip), vehicle: distilled water + Tween-80 100 % of control | dose: 75.0 mg/kg/injection, schedule: Q01DX009 (ip), vehicle: distilled water + Tween-80 97 % of control

CCCCCCC(C#N)C(=O)OCC (stereo unspecified)
inactive: dose: 75.0 mg/kg/injection, schedule: Q01DX001 (ip), vehicle: saline 100 % of control | dose: 150.0 mg/kg/injection, schedule: Q01DX001 (ip), vehicle: saline 96 % of control | dose: 300.0 mg/kg/injection, schedule: Q01DX001 (ip), vehicle: saline 100 % of control

CC1(C)C2CCC1(C(=O)O)CC2
inactive: [9] 100 % of control | [6] 100 % of control | [3] 92 % of control | [7] 97 % of control | [4] 95 % of control

CCOc1cccc(Cc2cn(Cc3ccc(NC(=O)c4ccc(S(=O)(=O)F)cc4)cc3)c(=O)[nH]c2=O)c1
inactive: [10] 101 % of control | [11] 95 % of control | [12] 95 % of control

COc1ccccc1NC(=O)NC1C(OC(C)=O)OC(COC(C)=O)C(OC(C)=O)C1OC(C)=O (stereo unspecified)
inactive: dose: 12.5 mg/kg/injection, schedule: Q01DX009 (ip), vehicle: other 93 % of control | dose: 25.0 mg/kg/injection, schedule: Q01DX009 (ip), vehicle: other 94 % of control | dose: 50.0 mg/kg/injection, schedule: Q01DX009 (ip), vehicle: other 98 % of control | dose: 100.0 mg/kg/injection, schedule: Q01DX009 (ip), vehicle: other 94 % of control | dose: 200.0 mg/kg/injection, schedule: Q01DX009 (ip), vehicle: other 93 % of control

COc1ccc(C(O)(c2ccccc2)C(C)O)cc1 (stereo unspecified)
inactive: [3] 101 % of control | [4] 98 % of control | [5] 98 % of control

O=c1oc(/C=C/c2ccccc2)nc2ccccc12
inactive: dose: 100.0 mg/kg/injection, schedule: Q04DX002 (ip), vehicle: saline with Tween-80 100 % of control | dose: 200.0 mg/kg/injection, schedule: Q04DX002 (ip), vehicle: saline with Tween-80 100 % of control | dose: 400.0 mg/kg/injection, schedule: Q04DX002 (ip), vehicle: saline with Tween-80 103 % of control

CC(=O)OC1C2CCC(C2)C1C (stereo unspecified)
inactive: [3] 95 % of control | [4] 92 % of control | [5] 92 % of control

C(=C/C1CCCCC1)/C=C/C1CCCCC1
inactive: [9] 103 % of control | [6] 92 % of control | [7] 107 % of control

O=C(O)/C=C(/Br)C(=O)O
inactive: dose: 100.0 mg/kg/injection, schedule: Q01DX001 (ip), vehicle: saline 97 % of control | dose: 200.0 mg/kg/injection, schedule: Q01DX001 (ip), vehicle: saline 108 % of control

Oc1cccc(O)c1
inactive: dose: 50.0 mg/kg/injection, schedule: Q01DX009 (ip), vehicle: saline 98 % of control | dose: 100.0 mg/kg/injection, schedule: Q01DX009 (ip), vehicle: saline 95 % of control | dose: 200.0 mg/kg/injection, schedule: Q01DX009 (ip), vehicle: saline 101 % of control

c1ccc2c(c1)cc1cnc3cccc4ccc2c1c43
inactive: dose: 12.5 mg/kg/injection, schedule: Q04DX002 (ip), vehicle: saline with Tween-80 96 % of control | dose: 25.0 mg/kg/injection, schedule: Q04DX002 (ip), vehicle: saline with Tween-80 101 % of control | dose: 50.0 mg/kg/injection, schedule: Q04DX002 (ip), vehicle: saline with Tween-80 90 % of control

Cc1nc(N)[nH]c(=O)c1NC(=O)c1ccccc1N
inactive: [10] 94 % of control | [11] 87 % of control | [12] 89 % of control

C1=CC23CC(c4ccccc42)C2c4ccccc4C23C=C1 (stereo unspecified)
inactive: [6] 101 % of control | [3] 93 % of control | [7] 101 % of control | [4] 95 % of control | [8] 95 % of control | [5] 93 % of control

CCCC[P+](c1ccccc1)(c1ccccc1)c1ccccc1
inactive: dose: 5.0 mg/kg/injection, schedule: Q01DX009 (ip), vehicle: saline sonified 103 % of control | dose: 5.0 mg/kg/injection, schedule: Q04DX003 (ip), vehicle: saline with Tween-80 97 % of control | dose: 10.0 mg/kg/injection, schedule: Q01DX009 (ip), vehicle: saline sonified 110 % of control | dose: 10.0 mg/kg/injection, schedule: Q04DX003 (ip), vehicle: saline with Tween-80 95 % of control | dose: 20.0 mg/kg/injection, schedule: Q01DX009 (ip), vehicle: saline sonified 120 % of control | dose: 20.0 mg/kg/injection, schedule: Q04DX003 (ip), vehicle: saline with Tween-80 98 % of control

CC(=O)Nc1ccccc1C(=O)C(=O)Nc1ccccc1C(=O)NN
inactive: [9] 95 % of control | [6] 91 % of control | [7] 87 % of control

Cc1ccc(CC(F)(F)F)cc1
inactive: [3] 100 % of control | [4] 100 % of control | [5] 108 % of control

Cc1cc(N(CCCl)CCCl)ccc1C1N(Cc2ccc(N(C)C)cc2)CCCN1Cc1ccc(N(C)C)cc1
inactive: [6] 101 % of control | [3] 98 % of control | [7] 101 % of control | [4] 101 % of control | [8] 108 % of control | [5] 108 % of control

O=C(O)c1c[nH]c2ccccc2c1=O
inactive: [3] 101 % of control | [4] 101 % of control | [5] 90 % of control

Cc1ccc(C(C)C)c(O)c1O
inactive: dose: 25.0 mg/kg/injection, schedule: Q01DX009 (ip), vehicle: saline with Tween-80 94 % of control | [1] 96 % of control | [9] 103 % of control | [2] 98 % of control | [6] 97 % of control | [3] 94 % of control

C=CC(=O)CCCC(=O)O
inactive: [6] 100 % of control | [7] 102 % of control | [8] 104 % of control

C#CCOc1ccccc1O
inactive: dose: 100.0 mg/kg/injection, schedule: Q04DX003 (ip), vehicle: acetone 101 % of control | dose: 200.0 mg/kg/injection, schedule: Q04DX003 (ip), vehicle: acetone 103 % of control | dose: 400.0 mg/kg/injection, schedule: Q04DX003 (ip), vehicle: acetone 95 % of control

C=CCS(=O)(=O)O
inactive: dose: 100.0 mg/kg/injection, schedule: Q01DX009 (ip), vehicle: saline sonified 96 % of control | dose: 100.0 mg/kg/injection, schedule: Q04DX003 (ip), vehicle: saline 100 % of control | dose: 200.0 mg/kg/injection, schedule: Q01DX009 (ip), vehicle: saline sonified 96 % of control | dose: 200.0 mg/kg/injection, schedule: Q04DX003 (ip), vehicle: saline 107 % of control | dose: 400.0 mg/kg/injection, schedule: Q01DX009 (ip), vehicle: saline sonified 96 % of control | dose: 400.0 mg/kg/injection, schedule: Q04DX003 (ip), vehicle: saline 107 % of control
